# Data reported in patent US8592594B2, “Tetrahydro-quinoline derivatives” (Hoffmann-La Roche Inc., priority 2010, dated 2013).
# System: recombinant AMPK proteins (α1β1γ1, α2β1γ1, α1(1-335), α1(1-394) or α2(1-394))
# Experiment: Scintillation Proximity Assay (SPA), AMPK activation
# Assay type: biochemical, human
# Conditions: effective concentration of activator for 50% of maximal enzyme activity; 50 nM AMPK, 2 μM ATP, 2 μM biotin-SAMS, 30° C., 2 hours
# Procedure: Recombinant human AMPK α1β1γ1, α2β1γ1 or AMPK α subunit truncations α1(1-335), α1(1-394) and α2(1-394) were constructed, expressed and purified as described previously (Pang, T., Zhang, Z. S., Gu, M., Qiu, B. Y., Yu, L. F., Cao, P. R., Shao, W., Su, M. B., Li, J. Y., Nan, F. J., and Li, J. (2008). Rat liver AMPK heterotrimer enzyme was obtained from Upstate (Billerica, Mass., U.S.A.).
# Scintillation Proximity Assay
# Before the Scintillation Proximity Assay (SPA) assay, 200 nM recombinant AMPK proteins (α1β1γ1, α2β1γ1, α1(1-335), α1(1-394) or α2(1-394)) were fully phosphorylated as described previously (Pang et al., 2008). SPA reactions were performed in 96-well plates at a final volume of 50 μL containing 20 mM Tris-HCl pH 7.5, 5 mM MgCl2, 1 mM DTT, 2 μM biotin-SAMS, 2 μM ATP, 0.2 μCi/well [γ-^33P]ATP, and various amount of activator. Reactions were initiated by the addition of 50 nM recombinant AMPK proteins to the reaction solutions and incubated at 30° C. for 2 hours. After that, reactions were terminated by the addition of 40 μL stop solution containing 80 μg streptavidin-coated SPA beads per well, 50 mM ED TA, 0.1% Triton X-100 in PBS, pH 7.5 and incubated for 1 hour. Finally, a 160 μL suspension solution containing 2.4 M CsCl, 50 mM EDTA, and 0.1% Triton X-100 in PBS (pH 7.5) was added to the reaction solution to suspend SPA beads completely. SPA signals were determined with a Wallac MicroBeta plate counter (PerkinElmer) 30 min later for calculation of the amount of product formed. The amount of products formed in 2 hour was plotted against activator concentrations to determine the effective concentration of the activator (EC50) required for 50% of maximal enzyme activity.
row,SMILES,EC50
1,"Cc1ccc(F)cc1C1CC2(CC2)c2cc(C(=O)O)ccc2N1 (stereo not drawn) [Example 1, 2-(5-Fluoro-2-methyl-phenyl)-spiro(cyclopropane-1,4′-1′,2′,3′,4′-tetrahydroquinoline)-6-carboxylic acid]",2.07 µM
2,"O=C(O)c1ccc2c(c1)C1(CC1)CC(c1cc(Br)ccc1F)N2 (stereo not drawn) [Example 2, 2-(5-Bromo-2-fluoro-phenyl)-spiro(cyclopropane-1,4′-1′,2′,3′,4′-tetrahydroquinoline)-6-carboxylic acid]",3.21 µM
3,"O=C(O)c1ccc2c(c1)C1(CC1)CC(c1cc(Cl)ccc1Cl)N2 (stereo not drawn) [Example 3, 2-(2,5-Dichloro-phenyl)-spiro(cyclopropane-1,4′-1′,2′,3′,4′-tetrahydroquinoline)-6-carboxylic acid]",6.12 µM
4,"O=C(O)c1ccc2c(c1)C1(CC1)CC(c1cc(Cl)cc(Cl)c1)N2 (stereo not drawn) [Example 4, 2-(3,5-Dichloro-phenyl)-spiro(cyclopropane-1,4′-1′,2′,3′,4′-tetrahydroquinoline)-6-carboxylic acid]",13.2 µM
5,"O=C(O)c1ccc2c(c1)C1(CC1)CC(c1cc(Cl)ccc1F)N2 (stereo not drawn) [Example 5, 2-(5-Chloro-2-fluoro-phenyl)-spiro(cyclopropane-1,4′-1′,2′,3′,4′-tetrahydroquinoline)-6-carboxylic acid]",1.24 µM
6,"CS(=O)(=O)c1cccc(C2CC3(CC3)c3cc(C(=O)O)ccc3N2)c1 (stereo not drawn) [Example 6, 2-(3-Methanesulfonyl-phenyl)-spiro(cyclopropane-1,4′-1′,2′,3′,4′-tetrahydroquinoline)-6-carboxylic acid]",7.41 µM
7,"O=C(O)c1ccc2c(c1)C1(CC1)CC(c1cc(F)ccc1Br)N2 (stereo not drawn) [Example 7, 2-(2-Bromo-5-fluoro-phenyl)-spiro(cyclopropane-1,4′-1′,2′,3′,4′-tetrahydroquinoline)-6-carboxylic acid]",2.29 µM
8,"O=C(O)c1ccc2c(c1)C1(CC1)CC(c1cccc(F)c1)N2 (stereo not drawn) [Example 8, 2-(3-Fluoro-phenyl)-spiro(cyclopropane-1,4′-1′,2′,3′,4′-tetrahydroquinoline)-6-carboxylic acid]",4.44 µM

# The next lines start with the values.
row,EC50,SMILES
1,1.68 µM,"O=C(O)c1ccc2c(c1)C1(CCCCC1)CC(c1cc(F)ccc1Br)N2 (stereo not drawn) [Example 9, 2-(2-Bromo-5-fluoro-phenyl)-spiro(cyclohexane-1,4′-1′,2′,3′,4′-tetrahydroquinoline)-6-carboxylic acid]"
2,3.48 µM,"O=C(O)c1ccc2c(c1)C1(CCCC1)CC(c1cc(F)ccc1Br)N2 (stereo not drawn) [Example 10, 2-(2-Bromo-5-fluoro-phenyl)-spiro(cyclopentane-1,4′-1′,2′,3′,4′-tetrahydroquinoline)-6-carboxylic acid]"
3,4.96 µM,"CS(=O)(=O)c1ccc(F)cc1C1CC2(CC2)c2cc(C(=O)O)ccc2N1 (stereo not drawn) [Example 11, 2-(5-Fluoro-2-methanesulfonyl-phenyl)-spiro(cyclopropane-1,4′-1′,2′,3′,4′-tetrahydroquinoline)-6-carboxylic acid]"
4,5.92 µM,"CS(=O)(=O)c1ccc(S(C)(=O)=O)c(C2CC3(CC3)c3cc(C(=O)O)ccc3N2)c1 (stereo not drawn) [Example 12, 2-(2,5-Dimethanesulfonyl-phenyl)-spiro(cyclopropane-1,4′-1′,2′,3′,4′-tetrahydroquinoline)-6-carboxylic acid]"
5,2.63 µM,"CN(C)C(=O)N1c2ccc(C(=O)O)cc2C2(CC2)CC1c1cc(Cl)ccc1Cl (stereo not drawn) [Example 13, 2-(2,5-Dichloro-phenyl)-1-dimethylcarbamoyl-spiro(cyclopropane-1,4′-1′,2′,3′,4′-tetrahydroquinoline)-6-carboxylic acid]"
6,3.76 µM,"O=C(O)c1ccc2c(c1)C1(CC1)CC(c1cc(Cl)ccc1Cl)N2Cc1ccccc1 (stereo not drawn) [Example 14, 1-Benzyl-2-(2,5-dichloro-phenyl)-spiro(cyclopropane-1,4′-1′,2′,3′,4′-tetrahydroquinoline)-6-carboxylic acid]"
7,7.6 µM,"CC1(C)CC(c2cc(Cl)ccc2Cl)Nc2ccc(C(=O)O)cc21 (stereo not drawn) [Example 15, 2-(2,5-Dichloro-phenyl)-4,4-dimethyl-1,2,3,4-tetrahydro-quinoline-6-carboxylic acid]"
